Measured values from patent publication US4983328A, “N-(4-(3-aminopropyl)aminobutyl)-2-(ω-gua nidino-fatty-acid-amido(-2-substituted-ethanamide, salt thereof, and process for preparation thereof” (Bristol-Myers Company, priority 1981, dated 1991).
Values after ≈ are worked out from the molar mass of the structure shown.

Columns and labels:
[1] = test system: mouse leukemia L-1210 cells; assay: growth inhibitory activity to cancer cells in vitro (L-1210, 48 hours); format: cell-based; conditions: for inhibition at 1.25 µg/mL: L1210, 1.25 mcg/ml; for inhibition at 2.5 µg/mL: L1210, 2.5 mcg/ml; for inhibition at 5 µg/mL: L1210, 5 mcg/ml; for inhibition at 10 µg/mL: L1210, 10 mcg/ml; for inhibition at 20 µg/mL: L1210, 20 mcg/ml; for inhibition at 40 µg/mL: L1210, 40 mcg/ml; for IC50: L1210, L-1210 cells, read-out: 50% inhibitory concentration; for inhibition at 80 µg/mL: L1210, 80 mcg/ml
Procedure, shortened: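 L-1210 cells from DBA/2 mouse ascites, cultured at 5×10^4 cells per well in RPMI 1640 with 10% FCS and 5 μM 2-mercaptoethanol, 37° C, CO2, for 48 h with compound. Cell counts by Coulter Counter gave % inhibition (1−T/C)×100, and IC50 was derived across concentrations.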

[2] = acute toxicity in mice (single intraperitoneal administration); conditions: mouse, in vivo, ip; mice, single i.p.; read-out: LD50 (median lethal dose on single administration)
Procedure: In Table 8 median lethal doses (LD50) of typical compounds of this invention are shown, measured in mice upon single intraperitoneal administration, as well as maximum tolerated doses in terms of total dose when a fixed amount per unit body weight was administered intraperitoneally to mice once a day for 6 consecutive days.
*Median lethal dose on single administration.

mouse leukemia L-1210 = assay: therapeutic effect on implanted cancer in mice (L-1210, survival over 30 days); format: in vivo, mouse (BDF1); conditions: L1210, ip, 720 h, 6 days; for responders at 0.2 mg/kg / response vs control in vivo at 0.2 mg/kg: 0.20 mg/kg/day i.p.; for responders at 0.2 mg/kg / responders at 0.39 mg/kg / responders at 0.78 mg/kg / responders at 1.56 mg/kg / responders at 3.13 mg/kg / responders at 6.25 mg/kg / responders at 12.5 mg/kg / responders at 25 mg/kg / responders at 50 mg/kg: read-out: Number of mice survived for 30 days (converted); for responders at 0.39 mg/kg / response vs control in vivo at 0.39 mg/kg: 0.39 mg/kg/day i.p.; for responders at 0.78 mg/kg / response vs control in vivo at 0.78 mg/kg: 0.78 mg/kg/day i.p.; for responders at 1.56 mg/kg / response vs control in vivo at 1.56 mg/kg: 1.56 mg/kg/day i.p.; for responders at 3.13 mg/kg / response vs control in vivo at 3.13 mg/kg: 3.13 mg/kg/day i.p.; for responders at 6.25 mg/kg / response vs control in vivo at 6.25 mg/kg: 6.25 mg/kg/day i.p.; for responders at 12.5 mg/kg / response vs control in vivo at 12.5 mg/kg: 12.5 mg/kg/day i.p.; for responders at 25 mg/kg / response vs control in vivo at 25 mg/kg: 25 mg/kg/day i.p.; for responders at 50 mg/kg / response vs control in vivo at 50 mg/kg: 50 mg/kg/day i.p.
Source text: BDF1 strain male mice (5 weeks old) were each inoculated intraperitoneally with 10^5 mouse leukemia L-1210 cells and treated once a day by intraperitoneal injection with a test compound dissolved in physiological saline for 6 consecutive days beginning from the day of inoculation. The mice were then observed for 30 days to determine the rate of prolongation of survival period=100×T/C=100×(average survival days of treated group)/(average survival days of control group).

[3] = cumulative toxicity in mice (maximum tolerated dose, once a day for 6 consecutive days); conditions: mouse, in vivo, ip, i.p. once a day for 6 consecutive days, total dose, read-out: Maximum Tolerated Dose (total dose not causing death)
Procedure, shortened: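 Mice dosed intraperitoneally once a day for 6 consecutive days with a fixed amount per unit body weight. The value is the maximum total dose not causing death.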

[4] = read-out: Growth inhibition (%), (1-T/C) × 100
[5] = read-out: Prolongation of survival period (%), T/C × 100

Row | SMILES | inhibition at 2.5 µg/mL [1, 4] | inhibition at 5 µg/mL [1, 4] | inhibition at 10 µg/mL [1, 4] | inhibition at 20 µg/mL [1, 4] | inhibition at 40 µg/mL [1, 4] | IC50 [1] | LD50 [2] | responders at 0.78 mg/kg (mouse leukemia L-1210) | response vs control in vivo at 0.78 mg/kg (mouse leukemia L-1210; [5]) | responders at 1.56 mg/kg (mouse leukemia L-1210) | response vs control in vivo at 1.56 mg/kg (mouse leukemia L-1210; [5]) | responders at 3.13 mg/kg (mouse leukemia L-1210) | response vs control in vivo at 3.13 mg/kg (mouse leukemia L-1210; [5]) | responders at 6.25 mg/kg (mouse leukemia L-1210) | response vs control in vivo at 6.25 mg/kg (mouse leukemia L-1210; [5]) | responders at 12.5 mg/kg (mouse leukemia L-1210) | response vs control in vivo at 12.5 mg/kg (mouse leukemia L-1210; [5]) | responders at 25 mg/kg (mouse leukemia L-1210) | response vs control in vivo at 25 mg/kg (mouse leukemia L-1210; [5]) | MTD [3] | also measured
1 | N=C(N)NCCCCCCC(=O)NC(O)C(=O)NCCCCNCCCN (centres unmarked) [Compound 4, N-[4-(3-aminopropyl)aminobutyl]-2-(7-guanidinoheptanamido)-2-hydroxyethanamide] | 27.5% | 29.9% | 58.4% | 75.5% | 78.7% | 8.1 µg/mL (≈ 20.9 µM) | 25 to 50 mg/kg | 100% | > 429% | 100% | > 429% | 50% | > 364% | 25% | > 369% | 50% | > 357% | 0% | 336% | > 150 mg/kg | inhibition at 1.25 µg/mL [1, 4]: 20%; responders at 0.2 mg/kg (mouse leukemia L-1210): 0%; response vs control in vivo at 0.2 mg/kg (mouse leukemia L-1210; [5]): 197%; responders at 0.39 mg/kg (mouse leukemia L-1210): 75%; response vs control in vivo at 0.39 mg/kg (mouse leukemia L-1210; [5]): > 390%; responders at 50 mg/kg (mouse leukemia L-1210): 0%; response vs control in vivo at 50 mg/kg (mouse leukemia L-1210; [5]): 0%
2 | COC(NC(=O)CCCCCCCNC(=N)N)C(=O)NCCCCNCCCN (centres unmarked) [Compound 10, N-[4-(3-aminopropyl)aminobutyl]-2-(8-guanidinooctanamido)-2-methoxyethanamide] | – | 19.9% | 28.5% | 36.5% | 52.4% | 39 µg/mL (≈ 93.8 µM) | 12.5 to 25 mg/kg | – | – | 0% | 100% | 0% | 100% | 0% | 107% | 0% | 129% | 0% | 0% | > 75 mg/kg | inhibition at 80 µg/mL [1, 4]: 62.4%; inhibition at 160 µg/mL ([1]; L1210, 160 mcg/ml, read-out: Growth inhibition (%), (1-T/C) × 100): 79.5%; responders at 50 mg/kg (mouse leukemia L-1210): 0%; response vs control in vivo at 50 mg/kg (mouse leukemia L-1210; [5]): 0%
3 | COC(NC(=O)C=CCCCCNC(=N)N)C(=O)NCCCCNCCCN (centres unmarked) [Compound 19, N-[4-(3-aminopropyl)aminobutyl]-2-(7-guanidino-2-heptenamido)-2-methoxyethanamide] | 32.2% | 46.4% | 56.4% | 75.6% | 85.4% | 6.3 µg/mL (≈ 15.8 µM) | 12.5 to 25 mg/kg | 0% | 164% | 50% | > 350% | 50% | > 321% | 75% | > 429% | 50% | > 364% | 0% | 0% | > 75 mg/kg | inhibition at 1.25 µg/mL [1, 4]: 29.9%; inhibition at 80 µg/mL [1, 4]: 93.1%; responders at 0.2 mg/kg (mouse leukemia L-1210): 0%; response vs control in vivo at 0.2 mg/kg (mouse leukemia L-1210; [5]): 100%; responders at 0.39 mg/kg (mouse leukemia L-1210): 0%; response vs control in vivo at 0.39 mg/kg (mouse leukemia L-1210; [5]): 107%
4 | N=C(N)NCCCCC=CC(=O)NC(O)C(=O)NCCCCNCCCN (centres unmarked) [Compound 16, N-[4-(3-aminopropyl)aminobutyl]-2-(7-guanidino-2-heptenamido)-2-hydroxyethanamide] | 22.6% | 31.1% | 32.5% | 56.3% | – | 17 µg/mL (≈ 44.1 µM) | 25 to 50 mg/kg | 0% | 129% | 0% | 233% | 50% | > 343% | 50% | > 350% | 50% | > 354% | 0% | 236% | > 150 mg/kg | responders at 50 mg/kg (mouse leukemia L-1210): 0%; response vs control in vivo at 50 mg/kg (mouse leukemia L-1210; [5]): 0%
5 | N=C(N)NCCCCCCC=CC(=O)NC(O)C(=O)NCCCCNCCCN (centres unmarked) [Compound 18, N-[4-(3-aminopropyl)aminobutyl]-2-(9-guanidino-2-nonenamido)-2-hydroxyethanamide] | – | 15.7% | 20.9% | 29.5% | 32.3% | 90 µg/mL (≈ 218 µM) | 6.25 to 12.5 mg/kg | 0% | 200% | 75% | > 429% | 100% | > 429% | 50% | > 350% | 0% | 0% | – | – | > 37.5 mg/kg | inhibition at 80 µg/mL [1, 4]: 47.8%; responders at 0.1 mg/kg (mouse leukemia L-1210; 0.10 mg/kg/day i.p., read-out: Number of mice survived for 30 days): 0%; response vs control in vivo at 0.1 mg/kg (mouse leukemia L-1210; 0.10 mg/kg/day i.p., read-out: Prolongation of survival period (%), T/C × 100): 129%; responders at 0.2 mg/kg (mouse leukemia L-1210): 0%; response vs control in vivo at 0.2 mg/kg (mouse leukemia L-1210; [5]): 136%; responders at 0.39 mg/kg (mouse leukemia L-1210): 0%; response vs control in vivo at 0.39 mg/kg (mouse leukemia L-1210; [5]): 157%
